Assay results from patent US12643886B2 (Ontario Institute for Cancer Research (OICR), priority 2021, dated 2026).
pIC50: −log10 of the molar value.

Key:
Type in all cases: biochemical
[1] = biological target: T1, Aurora A (Homo sapiens, UniProt O14965); experiment: Counter-screen against Aurora A; details: read-out: AUR-A (IC50)
T1 sequence (O14965 1-403): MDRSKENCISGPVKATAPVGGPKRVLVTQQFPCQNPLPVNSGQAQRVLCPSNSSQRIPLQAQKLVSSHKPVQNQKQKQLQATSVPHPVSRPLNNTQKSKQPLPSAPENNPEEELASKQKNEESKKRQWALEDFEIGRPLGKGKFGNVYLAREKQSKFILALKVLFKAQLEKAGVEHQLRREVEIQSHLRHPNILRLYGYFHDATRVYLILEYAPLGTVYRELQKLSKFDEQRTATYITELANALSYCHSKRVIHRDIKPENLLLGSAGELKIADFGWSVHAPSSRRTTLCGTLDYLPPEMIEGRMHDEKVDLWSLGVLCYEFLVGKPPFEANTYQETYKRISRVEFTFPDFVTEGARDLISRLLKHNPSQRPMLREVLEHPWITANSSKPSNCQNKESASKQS
Protocol: (§1) To identify small molecule NUAK inhibitors, a biochemical NUAK2 enzymatic assay were outsourced to Eurofins. This assay was done radiometrically using full-length, recombinant enzyme. NUAK2 (h) was incubated with 8 mM MOPS pH 7.0, 0.2 mM EDTA, 300 μM […], 10 mM magnesium acetate and […] (specific activity and concentration as required). The reaction was initiated by the addition of the Mg/ATP mix. After incubation for 40 minutes at room temperature, the reaction was stopped by the addition of phosphoric acid to a concentration of 0.5%. 10 μL of the reaction was then spotted onto a P30 filtermat and washed four times for 4 minutes in 0.425% phosphoric acid and once in methanol prior to drying and scintillation counting. Compounds were routinely counter-screened against Aurora A and NUAK1. The results are shown in Table 1 where IC50's are reported in the following ranges: A: 0.1-10 nM; B: 11-100 nM; C: 101-1000 nM; D: >1000 nM for the compounds of Formula (I)

[2] = biological target: T2, NUAK1 (Homo sapiens, UniProt O60285); experiment: Counter-screen against NUAK1
T2 sequence (O60285 1-661): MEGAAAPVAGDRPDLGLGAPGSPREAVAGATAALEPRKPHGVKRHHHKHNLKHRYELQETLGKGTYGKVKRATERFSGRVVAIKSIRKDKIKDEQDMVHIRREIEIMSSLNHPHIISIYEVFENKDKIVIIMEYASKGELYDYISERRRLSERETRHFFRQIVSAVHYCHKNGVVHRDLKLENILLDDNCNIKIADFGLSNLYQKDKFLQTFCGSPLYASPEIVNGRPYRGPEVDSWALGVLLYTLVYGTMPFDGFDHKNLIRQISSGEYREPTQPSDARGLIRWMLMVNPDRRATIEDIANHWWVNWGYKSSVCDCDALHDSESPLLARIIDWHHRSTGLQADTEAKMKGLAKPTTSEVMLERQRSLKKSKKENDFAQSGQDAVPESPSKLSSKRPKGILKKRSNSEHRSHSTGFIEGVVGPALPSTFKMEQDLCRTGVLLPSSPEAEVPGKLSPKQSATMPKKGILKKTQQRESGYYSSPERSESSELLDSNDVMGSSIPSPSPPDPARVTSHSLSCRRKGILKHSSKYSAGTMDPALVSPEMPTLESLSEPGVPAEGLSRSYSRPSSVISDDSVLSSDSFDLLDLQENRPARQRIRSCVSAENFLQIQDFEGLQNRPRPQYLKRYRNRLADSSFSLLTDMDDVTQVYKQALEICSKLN
Protocol: as §1

[3] = biological target: T3, NUAK2 (h) (Homo sapiens, UniProt Q9H093); experiment: NUAK2 enzymatic assay (radiometric, Eurofins); details: full-length recombinant enzyme
T3 construct: This assay was done radiometrically using full-length, recombinant enzyme; purchased Eurofins
T3 sequence (Q9H093 1-628): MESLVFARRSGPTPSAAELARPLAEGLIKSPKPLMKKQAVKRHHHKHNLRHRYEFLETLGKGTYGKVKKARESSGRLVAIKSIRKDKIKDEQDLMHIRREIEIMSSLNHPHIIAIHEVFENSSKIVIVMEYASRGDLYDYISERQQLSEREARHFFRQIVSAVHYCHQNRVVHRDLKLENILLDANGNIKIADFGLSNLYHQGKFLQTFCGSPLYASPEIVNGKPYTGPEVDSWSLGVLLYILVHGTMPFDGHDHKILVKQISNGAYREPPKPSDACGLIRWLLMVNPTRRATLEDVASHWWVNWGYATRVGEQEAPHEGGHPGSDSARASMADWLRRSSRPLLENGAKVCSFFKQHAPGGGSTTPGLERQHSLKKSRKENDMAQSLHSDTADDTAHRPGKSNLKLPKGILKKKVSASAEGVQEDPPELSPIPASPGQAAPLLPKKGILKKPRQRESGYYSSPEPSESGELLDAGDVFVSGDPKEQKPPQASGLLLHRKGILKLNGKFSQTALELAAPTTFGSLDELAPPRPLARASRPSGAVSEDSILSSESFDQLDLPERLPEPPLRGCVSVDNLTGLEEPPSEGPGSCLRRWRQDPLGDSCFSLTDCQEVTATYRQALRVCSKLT
Protocol: as §1

Structure (SMILES) | pIC50 [1] | pIC50 [2] | pIC50 [3]
CN1CCN(c2ccc(Nc3ncc(Cl)c(Nc4cccc5c4C(=O)NC5)n3)c(OC(F)F)c2)CC1 [Compound I-1, 7-((5-chloro-2-((2-(difluoromethoxy)-4-(4-methylpiperazin-1-yl)phenyl)amino)pyrimidin-4-yl)amino)isoindolin-1-one] | 6.00 to 7.00 | 7.00 to 7.96 | 8.00 to 10.00
CCN1CCN(c2ccc(Nc3nccc(Nc4cccc5c4C(=O)NC5)n3)cc2F)CC1 [Compound I-2, 7-((2-((4-(4-ethylpiperazin-1-yl)-3-fluorophenyl)amino)pyrimidin-4-yl)amino)isoindolin-1-one] | 8.00 to 10.00 | 8.00 to 10.00 | 7.00 to 7.96
COc1cc2c(cc1Nc1ncc(Cl)c(Nc3cccc4c3C(=O)NC4)n1)CN(C)CC2 [Compound I-3, 7-((5-chloro-2-((6-methoxy-2-methyl-1,2,3,4-tetrahydroisoquinolin-7-yl)amino)pyrimidin-4-yl)amino)isoindolin-1-one] | 6.00 to 7.00 | 6.00 to 7.00 | 7.00 to 7.96
CCN1CCN(c2ccc(Nc3ncc(Cl)c(Nc4cccc5c4C(=O)NC5)n3)cc2F)CC1 [Compound I-4, 7-((5-chloro-2-((4-(4-ethylpiperazin-1-yl)-3-fluorophenyl)amino)pyrimidin-4-yl)amino)isoindolin-1-one] | 8.00 to 10.00 | 7.00 to 7.96 | 8.00 to 10.00
COc1cc(N2CCN(C)CC2)ccc1Nc1ncc(Cl)c(Nc2cccc3c2C(=O)NC3)n1 [Compound I-5, 7-((5-chloro-2-((2-methoxy-4-(4-methylpiperazin-1-yl)phenyl)amino)pyrimidin-4-yl)amino)isoindolin-1-one] | 7.00 to 7.96 | 7.00 to 7.96 | 8.00 to 10.00
COc1c(Nc2ncc(Cl)c(Nc3cccc4c3C(=O)NC4)n2)ccc(N2CCN3CCCC3C2)c1F (stereo not shown) [Compound I-6, 7-((5-chloro-2-((3-fluoro-4-(hexahydropyrrolo[1,2-a]pyrazin-2(1H)-yl)-2-methoxyphenyl)amino)pyrimidin-4-yl)amino)isoindolin-1-one] | 6.00 to 7.00 | 7.00 to 7.96 | 7.00 to 7.96
COc1c(Nc2ncc(Cl)c(Nc3cccc4c3C(=O)NC4)n2)ccc(N2CCC(N3CCN(C)CC3)CC2)c1F [Compound I-7, 7-((5-chloro-2-((3-fluoro-2-methoxy-4-(4-(4-methylpiperazin-1-yl)piperidin-1-yl)phenyl)amino)pyrimidin-4-yl)amino)isoindolin-1-one] | 6.00 to 7.00 | 7.00 to 7.96 | 7.00 to 7.96
CN1CCN(c2ccc(Nc3ncc(Cl)c(Nc4cccc5c4C(=O)NC5)n3)c(C(F)(F)F)c2)CC1 [Compound I-8, 7-((5-chloro-2-((4-(4-methylpiperazin-1-yl)-2-(trifluoromethyl)phenyl)amino)pyrimidin-4-yl)amino)isoindolin-1-one] | 6.00 to 7.00 | 6.00 to 7.00 | 7.00 to 7.96
CN1CCN(C2CCN(c3ccc(Nc4ncc(Cl)c(Nc5cccc6c5C(=O)NC6)n4)c(OC(F)F)c3)CC2)CC1 [Compound I-9, 7-((5-chloro-2-((2-(difluoromethoxy)-4-(4-(4-methylpiperazin-1-yl)piperidin-1-yl)phenyl)amino)pyrimidin-4-yl)amino)isoindolin-1-one] | 6.00 to 7.00 | 7.00 to 7.96 | 8.00 to 10.00
CN1CCc2ccc(Nc3ncc(Cl)c(Nc4cccc5c4C(=O)NC5)n3)cc2C1 [Compound I-10, 7-((5-chloro-2-((2-methyl-1,2,3,4-tetrahydroisoquinolin-7-yl)amino)pyrimidin-4-yl)amino)isoindolin-1-one] | 8.00 to 10.00 | 8.00 to 10.00 | 8.00 to 10.00
CC(C)Oc1cc(N2CCN(C)CC2)ccc1Nc1ncc(Cl)c(Nc2cccc3c2C(=O)NC3)n1 [Compound I-11, 7-((5-chloro-2-((2-isopropoxy-4-(4-methylpiperazin-1-yl)phenyl)amino)pyrimidin-4-yl)amino)isoindolin-1-one] | < 6.00 | < 6.00 | 6.00 to 7.00
COc1cc2c(cc1Nc1ncc(Cl)c(Nc3cccc4c3C(=O)NC4)n1)CCN(C)C2 [Compound I-12, 7-((5-chloro-2-((7-methoxy-2-methyl-1,2,3,4-tetrahydroisoquinolin-6-yl)amino)pyrimidin-4-yl)amino)isoindolin-1-one] | < 6.00 | 7.00 to 7.96 | 8.00 to 10.00
COc1nc(N2CCC(N3CCN(C)CC3)CC2)ccc1Nc1ncc(Cl)c(Nc2cccc3c2C(=O)NC3)n1 [Compound I-13, 7-((5-chloro-2-((2-methoxy-6-(4-(4-methylpiperazin-1-yl)piperidin-1-yl)pyridin-3-yl)amino)pyrimidin-4-yl)amino)isoindolin-1-one] | 7.00 to 7.96 | 7.00 to 7.96 | 8.00 to 10.00
COc1nc(N2CCN(C)CC2)ccc1Nc1ncc(Cl)c(Nc2cccc3c2C(=O)NC3)n1 [Compound I-14, 7-((5-chloro-2-((2-methoxy-6-(4-methylpiperazin-1-yl)pyridin-3-yl)amino)pyrimidin-4-yl)amino)isoindolin-1-one] | 7.00 to 7.96 | 8.00 to 10.00 | 7.00 to 7.96
Cc1c(N2CCN(C)CC2)ccc(Nc2ncc(Cl)c(Nc3cccc4c3C(=O)NC4)n2)c1Cl [Compound I-15, 7-((5-chloro-2-((2-chloro-3-methyl-4-(4-methylpiperazin-1-yl)phenyl)amino)pyrimidin-4-yl)amino)isoindolin-1-one] | 6.00 to 7.00 | 7.00 to 7.96 | 7.00 to 7.96
COc1cc2c(cc1Nc1ncc(Cl)c(Nc3cccc4c3C(=O)NC4)n1)CN(C)CC2(C)C [Compound I-16, 7-((5-chloro-2-((6-methoxy-2,4,4-trimethyl-1,2,3,4-tetrahydroisoquinolin-7-yl)amino)pyrimidin-4-yl)amino)isoindolin-1-one] | < 6.00 | 7.00 to 7.96 | 7.00 to 7.96
COc1cc2c(cc1Nc1ncc(Cl)c(Nc3cccc4c3C(=O)NC4)n1)CCNC2 [Compound I-17, 7-((5-chloro-2-((7-methoxy-1,2,3,4-tetrahydroisoquinolin-6-yl)amino)pyrimidin-4-yl)amino)isoindolin-1-one] | < 6.00 | 7.00 to 7.96 | 7.00 to 7.96
CN1CCN(c2ccc(Nc3ncc(Cl)c(Nc4ccc(F)c5c4C(=O)NC5)n3)c(OC(F)F)c2)CC1 [Compound I-84, 7-((5-chloro-2-((2-(difluoromethoxy)-4-(4-methylpiperazin-1-yl)phenyl)amino)pyrimidin-4-yl)amino)-4-fluoroisoindolin-1-one] | < 6.00 |  | 8.00 to 10.00
COc1cc(CN(C)C)ccc1Nc1ncc(Cl)c(Nc2ccc(F)c3c2C(=O)NC3)n1 [Compound I-85, 7-((5-chloro-2-((4-((dimethylamino)methyl)-2-methoxyphenyl)amino)pyrimidin-4-yl)amino)-4-fluoroisoindolin-1-one] | < 6.00 |  | 7.00 to 7.96
